From PMC5729604, “Dual inhibitors of hepatitis C virus and hepatocellular carcinoma: design, synthesis and docking studies” (Future Science OA, 2017)
In brackets after ≈: the same amount, converted by molar mass. Several values for one entry are separate records, joined by “and”; a condition that tells them apart may be missing. Identical values can stand only once. Like-named read-outs stand apart in the source and are kept apart here.

Legend:
[1] = test system: human peripheral blood mononuclear cells (PBMCs); assay type: cell-based; conditions: 72 h
Procedure: The safe compounds on RBCs (5a-g, 5i-l, 5p-r, 5v-w, 6b-g) were subjected to the in vitro cytotoxicity assay on human peripheral blood mononuclear cells (PBMCs). Viability of cells was measured using neutral red uptake assay as described by Borenfreund and Puerner to determine the concentrations of each compound that were not cytotoxic. The results were interpreted to calculate both the lethal concentration that kills 50% of cells (LD50) and the maximum safe concentration that causes 100% viability (LD0) of each compound using GraphPad InStat 3.0 software (Figure 6 & Supplementary Table 3).
The PBMCs were isolated by density gradient centrifugation technique as described by Boyum. Blood samples were freshly collected into heparinized or ethylenediaminetetraacetic acid sterile tubes. Blood was diluted using equal volume of RPMI-1640 medium containing 25 mM HEPES and then layered over equal volume of Ficoll-Pague™ Plus (Fisher BioReagents™ Lymphocyte Separation Medium-LSM, PA, USA) and centrifuged (2000 r.p.m. for 30 min at acceleration and deceleration speeds zero & zero) at room temperature. The buffy mononuclear cell layer was collected using sterile Pasteur pipette into 50 ml sterile Falcon tube and washed twice in phosphate-buffered saline (Sigma-Aldrich) using centrifugation (1650 r.p.m. for 5 min). The isolated PBMCs viability was determined by hemocytometer count using the trypan blue exclusion method. The PBMCs were resuspended at 1 × 10^6 cells/ml in RPMI-1640 medium containing 25 mM HEPES supplemented with 10% heat-inactivated FBS. The appropriate number of cells was chosen to be 1 × 10^5 cells/well (100 μl of the prepared suspension).
(§1) A 2 mg/ml stock solution of each compound was prepared in DMF and filtered using a 0.2 μM syringe filter. The desired concentrations (20, 10, 5, 2.5 and 1.25 μg/ml) were prepared using serial dilution in a 96-well plate. Compound wells were prepared by adding 100 μl of the previously prepared concentrations to a suspension of 1 × 10^5 PBMCs in 100 μl culture media. Parallel concentrations of the solvent were prepared to be used as controls. Control wells were prepared by adding 100 μl culture media to a suspension of 1 × 10^5 PBMCs in 100 μl culture media. Blank wells contained 200 μl of culture media only (without cells or compound solution). Each set of samples was pipetted in duplicate. The plate was then gently shaken then incubated at 37°C, 5% CO2 for 72 h.
After incubation, neutral red assay was performed as described previously, and surviving cell fraction was calculated according to the previously mentioned equation. Also, the results were interpreted to calculate both the lethal concentration that kills 50% of cells (LD50) and the maximum safe concentration that cause 100% viability (LD0) of each compound using GraphPad InStat 3.0 software.

[2] = test system: human HCC cell line HepG2; experiment: cells; assay type: cell-based; conditions: for IC50: Homo sapiens, HepG2, 72 h; for (LD0) HepG2 / Safe doses (100% viability of HepG2) LD0: human; for in vitro anticancer activity against HepG2, in words: IC50 <100 μg/ml potential, 100-1000 μg/ml moderate
Procedure: The safe compounds on RBCs (5a-g, 5i-l, 5p-r, 5v-w, 6b-g) were screened for their potential anticancer activity against human HCC cell line HepG2. HepG2 cells were exposed to the test compounds, then viability of cells was measured using neutral red uptake assay as described by Borenfreund and Puerner. This assay depends on the fact that neutral red dye can be incorporated into the lysosomes of living cells providing a quantitative assay to the cytotoxic effects. The results were interpreted to calculate both the concentration causing 50% cancer cell death (IC50) of each compound and the maximum safe concentration that cause 100% viability (LD0; to be used in the in vitro anti-HCV testing) using GraphPad InStat 3.0 software (Figure 5 & Supplementary Table 2).
HepG2 cells were routinely maintained as adherent cell cultures in RPMI-1640 medium (Lonza Group Ltd, Basel, Switzerland) supplemented with 10% fetal bovine serum (FBS; Lonza, IL, USA) at 37°C in a humidified air incubator containing 5% CO2. Cells were subcultured for 2 weeks before assay. Cell viability was assessed using trypan blue exclusion method.
HepG2 cells were washed twice in RPMI-1640 medium supplemented with 200 μM L-glutamine (Lonza) and […] 4-(2-hydroxyethyl)-1-piperazineethanesulfonic acid (HEPES) buffer (Lonza). The cells were suspended at 3 × 10^4 cells/ml in RPMI culture medium (RPMI supplemented medium and 10% FBS). The appropriate number of cells was chosen to be 3 × 10^3 cells/well (100 μl of the prepared suspension), and the cells were left to adhere on the polystyrene 96-well plates in an incubator at 37°C, 5% CO2 and 95% humidity for 24 h. The cells were washed once using RPMI supplemented medium.
as §1, with “a” for “a suspension of 1 × 10^5 PBMCs in”, “of HepG2 cells suspension.” for “culture media.”, “controls. 5-Fluorouracil was used as a positive control.” for “controls.”, “was” for “was then”, “shaken,” for “shaken”
After incubation, the plate was centrifuged (2000 r.p.m. for 10 min). The media were discarded by inversion over paper towels. A working solution (100 μg/ml) of neutral red stain (Bio Basic Inc, Markham, Canada) was prepared, and 100 μl of this solution was added to each well, then the plate was gently shaken. The plate was incubated at 37°C in humidified 5% CO2 for 3 h, and then centrifuged (2000 r.p.m. for 10 min). Excess dyes were discarded, and the cells were fixed with 100 μl fixing solution (0.5% formalin with 1% calcium chloride [Sigma-Aldrich]) for 1 min. Cells were destained in 100 μl destaining solution (50% ethanol with 1% glacial acetic acid [Sigma-Aldrich]) for 5 min by shaking. The stain intensity was assayed using automated microplate reader spectrophotometer adjusted at 490 nm. Surviving cell fraction was calculated according to the following equation: [drawing 3]
The results were interpreted to calculate both the concentration causing 50% cancer cell death (IC50) of each compound and the maximum safe concentration that cause 100% viability (LD0; to be used in the in vitro anti-HCV testing) using GraphPad InStat 3.0 software.

[3] = 72 h, neutral red, Supplementary Table 2, read-out: Anticancer (HepG2) IC50
[4] = 72 h, neutral red, Table 1, read-out: IC50 (HepG2)
[5] = 72 h, neutral red, read-out: IC50 against HepG2 cells
[6] = LD50 on normal cells / IC50 on cancer cells, larger than three = highly selective

| Structure (SMILES) | (LD0) PBMCs [1] [µg/mL] | LD0 [1] [µg/mL] | LD50 [1] [µg/mL] | IC50 [2, 3] [µg/mL] | (LD0) HepG2 ([2]; 72 h) [µg/mL] | Safe doses (100% viability of HepG2) LD0 ([2]; 72 h) [µg/mL] | LD50 (PBMCs) [1] [µg/mL] | IC50 [2, 4] [µg/mL] | in vitro anticancer activity against HepG2, in words [2] | Selectivity index ([2]; LD50 on PBMC / IC50 on HepG2) | IC50 [2, 5] [µg/mL] | IC50 against HepG2 cells ([2]; 72 h, neutral red) [µg/mL] | IC100, concentration that killed 100% of cancer cells ([2]; HepG2, calculated with GraphPad InStat) | Selectivity index [2, 6] |
| --- | --- | --- | --- | --- | --- | --- | --- | --- | --- | --- | --- | --- | --- | --- |
| CC(=NN=C1SC(=Cc2cn(-c3ccccc3)nc2-c2ccc(Cl)cc2)C(=O)N1C1CCCCC1)c1cc2ccccc2o1 [Compound 5k, 2-[1-(Benzofuran-2-yl)ethylidenehydrazono]-5-{[3-(4-chlorophenyl)-1-phenyl-1H-pyrazol-4-yl]methylene}-3-cyclohexylthiazolidin-4-one] | 33.29 | 33.29 | 319.64 | 150 (≈ 242 µM) | 56.74 | 56.74 | – | – | – | – | – | – | – | – |
| COc1ccc(-c2nn(-c3ccccc3)cc2C=C2SC(=NN=C(C)c3cc4ccccc4o3)N(C3CCCCC3)C2=O)cc1 [Compound 5l, 2-[1-(Benzofuran-2-yl)ethylidenehydrazono]-5-{[3-(4-methoxyphenyl)-1-phenyl-1H-pyrazol-4-yl]methylene}-3-cyclohexylthiazolidin-4-one] | 8.33 | 8.33 | 46.89 | – | 5.11 | 5.11 | 46.89 | 82.1 (≈ 133 µM) | potential in vitro anticancer activity | 0.57 | – | – | – | – |
| CC(=NN=C1SC(=Cc2cn(-c3ccccc3)nc2-c2ccccc2)C(=O)N1c1ccc(Cl)cc1)c1nc2ccccc2[nH]1 [Compound 5p, 2-[1-(1H-Benzimidazole-2-yl)ethylidenehydrazono]-5-[(1,3-Diphenyl-1H-pyrazol-4-yl)methylene]-3-(4-chlorophenyl)thiazolidin-4-one] | 12.67 | 12.67 | 120.46 | – | 13.32 | 13.22 | 120.46 | 46.5 (≈ 75.7 µM) | potential in vitro anticancer activity | 2.58 | < 50 | – | – | – |
| CC(=NN=C1SC(=Cc2cn(-c3ccccc3)nc2-c2ccc(Cl)cc2)C(=O)N1c1ccc(Cl)cc1)c1nc2ccccc2[nH]1 [Compound 5q, 2-[1-(1H-Benzimidazole-2-yl)ethylidenehydrazono]-5-{[3-(4-chlorophenyl)-1-phenyl-1H-pyrazol-4-yl]methylene}-3-(4-chlorophenyl)thiazolidin-4-one] | 190.45 | 190.45 | 1246.96 | – | 23.12 | 23.12 | 1246.96 | 35.7 (≈ 55.1 µM) | potential in vitro anticancer activity | – | < 50 | < 100 | 94.54 µg/mL and < 100 µg/mL | larger than three |
| COc1ccc(-c2nn(-c3ccccc3)cc2C=C2SC(=NN=C(C)c3nc4ccccc4[nH]3)N(c3ccc(Cl)cc3)C2=O)cc1 [Compound 5r, 2-[1-(1H-Benzimidazole-2-yl)ethylidenehydrazono]-5-{[3-(4-methoxyphenyl)-1-phenyl-1H-pyrazol-4-yl]methylene}-3-(4-chlorophenyl)thiazolidin-4-one] | 7.33 | 7.33 | 44.00 | – | 0.18 | 0.181 | 44.00 | 11 (≈ 17.1 µM) | potential in vitro anticancer activity | 3.99 | < 50 | – | – | larger than three |
| CC(=NN=C1SC(=Cc2cn(-c3ccccc3)nc2-c2ccccc2)C(=O)N1C1CCCCC1)c1nc2ccccc2[nH]1 [Compound 5v, 2-[1-(1H-Benzimidazole-2-yl)ethylidenehydrazono]-5-[(1,3-Diphenyl-1H-pyrazol-4-yl)methylene]-3-cyclohexylthiazolidin-4-one] | 13.85 | 13.85 | 43.40 | 250 (≈ 427 µM) | 30.89 | 30.89 | – | – | – | – | – | – | – | – |
| CC(=NN=C1SC(=Cc2cn(-c3ccccc3)nc2-c2ccc(Cl)cc2)C(=O)N1C1CCCCC1)c1nc2ccccc2[nH]1 [Compound 5w, 2-[1-(1H-Benzimidazole-2-yl)ethylidenehydrazono]-5-{[3-(4-chlorophenyl)-1-phenyl-1H-pyrazol-4-yl]methylene}-3-cyclohexylthiazolidin-4-one] | 16.03 | 16.03 | 36.28 | 1100 (≈ 1770 µM) | 92.40 | 92.40 | – | – | very weak anticancer activity | – | – | – | – | – |
| CC(=NN=C1SC(=C2C(=O)Nc3ccccc32)C(=O)N1c1ccc(Cl)cc1)c1cc2ccccc2o1 [Compound 6b, 2-[1-(Benzofuran-2-yl)ethylidenehydrazono]-5-(2-oxoindolin-3-ylidene)-3-(4-chlorophenyl)thiazolidin-4-one] | 18.18 | 18.18 | 61.46 | 354 (≈ 689 µM) | 11.07 | 11.07 | – | – | – | – | – | – | – | – |
